{"source": "patent US20150191484A1", "about": "“NOVEL COMPOUNDS HAVING A TETRACYCLIC IRIDOID SKELTON AND AN ANTI-TRYPANOSOMAL AGENT COMPRISING THE SAME AS AN ACTIVE INGREDIENT” (NATIONAL UNIVERSITY CORPORATION TOKYO MEDICAL AND DENTAL …, priority 2014, published 2015)", "key": {"[1]": {"test": "MTT cytotoxicity assay, U937", "assay_type": "cell-based, human", "conditions": "human, U937 leukemia cells; U937 leukemia, 48 h, MTT", "procedure": "(§1) The cytotoxic activity of natural products against mammalian cells is an important point in the search for active compounds with biological activity. […] In order to confirm the selective and potent anti-trypanosomal activity of ML-2-2 and ML-2-3, we examined their cytotoxicity in a panel of human cell lines including two human fibroblastic and 8 human cancer-derived cell lines. Cells were seeded in 96-well microplates and incubated with ML-2-2 and ML-2-3 for 48 h at 37° C. in a 5% CO2 humidified incubator. The viabilities of cells were determined with the MTT (3-(4,5-dimethylthiazol-2-yl)-2-5-diphenyltetrazolium bromide) assay. The selectivity index (SI) was determined using the following equation: IC50 against human cells/IC50 against T. brucei. The IC50 values of ML-2-3 were higher than those of ML-2-2 in all the cell lines examined. […] The SI of ML-2-2 indicates values below 1.00 in most cell lines. On the other hand, SI values of ML-2-3 were much higher than those of ML-2-2 in all tested cell lines."}, "U937 (leukemia)": {"system": "U937 (leukemia)", "test": "MTT cytotoxicity assay, U937", "assay_type": "cell-based, human", "conditions": "IC50 against U937 / IC50 against T. brucei", "procedure": "as §1"}, "KATOIII (stomach cancer)": {"system": "KATOIII (stomach cancer)", "test": "MTT cytotoxicity assay, KATOIII", "assay_type": "cell-based, human", "conditions": "IC50 against KATOIII / IC50 against T. brucei", "procedure": "as §1"}, "[2]": {"test": "MTT cytotoxicity assay, KATOIII", "assay_type": "cell-based, human", "conditions": "human, KATOIII stomach cancer cells; KATOIII stomach cancer, 48 h, MTT", "procedure": "as §1"}, "[3]": {"test": "MTT cytotoxicity assay, Jurkat", "assay_type": "cell-based, human", "conditions": "human, Jurkat leukemia cells; Jurkat leukemia, 48 h, MTT", "procedure": "as §1"}, "Jurkat (leukemia)": {"system": "Jurkat (leukemia)", "test": "MTT cytotoxicity assay, Jurkat", "assay_type": "cell-based, human", "conditions": "IC50 against Jurkat / IC50 against T. brucei", "procedure": "as §1"}, "THP-1 (leukemia)": {"system": "THP-1 (leukemia)", "test": "MTT cytotoxicity assay, THP-1", "assay_type": "cell-based, human", "conditions": "IC50 against THP-1 / IC50 against T. brucei", "procedure": "as §1"}, "[4]": {"test": "MTT cytotoxicity assay, THP-1", "assay_type": "cell-based, human", "conditions": "human, THP-1 leukemia cells; THP-1 leukemia, 48 h, MTT", "procedure": "as §1"}, "[5]": {"system": "NB1RGB (normal fibroblast)", "test": "MTT cytotoxicity assay, NB1RGB", "assay_type": "cell-based, human", "conditions": "IC50 against NB1RGB / IC50 against T. brucei", "procedure": "as §1"}, "[6]": {"test": "MTT cytotoxicity assay, NB1RGB", "assay_type": "cell-based, human", "conditions": "human, NB1RGB normal fibroblast cells; NB1RGB normal fibroblast, 48 h, MTT", "procedure": "as §1"}, "[7]": {"test": "MTT cytotoxicity assay, HCT-15", "assay_type": "cell-based, human", "conditions": "human, HCT-15 colon cancer cells; HCT-15 colon cancer, 48 h, MTT", "procedure": "as §1"}, "HCT-15 (colon cancer)": {"system": "HCT-15 (colon cancer)", "test": "MTT cytotoxicity assay, HCT-15", "assay_type": "cell-based, human", "conditions": "IC50 against HCT-15 / IC50 against T. brucei", "procedure": "as §1"}, "[8]": {"system": "HF-19 (normal fibroblast)", "test": "MTT cytotoxicity assay, HF-19", "assay_type": "cell-based, human", "conditions": "IC50 against HF-19 / IC50 against T. brucei", "procedure": "as §1"}, "[9]": {"test": "MTT cytotoxicity assay, HF-19", "assay_type": "cell-based, human", "conditions": "human, HF-19 normal fibroblast cells; HF-19 normal fibroblast, 48 h, MTT", "procedure": "as §1"}, "Trypanosoma cells [10]": {"system": "Trypanosoma cells", "test": "Cell cycle assay (FACS)", "assay_type": "cell-based, Trypanosoma brucei brucei", "conditions": "four times of IC50: 15 μM ML-2-3, 5 μM ML-2-2; 24 hours", "procedure": "(§2) The GUTat 3.1 strain of the bloodstream forms of T. b. brucei parasites was used for this study. Parasites were cultured in vitro according to the conditions established by Yabu et al, 1998.\n(§3) Parasites were used when they reached a confluent concentration of 1×10^6 parasites/ml. Estimation of parasitemia was done with the Neubauer's counting chamber. Parasites were diluted to a concentration of 3×10^5 parasites/ml with HMI-9 medium and used for the various experiments.\nThis assay was performed to investigate any abnormal change in the parasites' cell cycle which may be caused by extracts/compounds with trypanocidal effect. […] The parasites were collected and transferred into 15 ml centrifuge tubes and centrifuged at 1700 rpm for 10 min, after which the supernatant was discarded. The pelleted parasites were re-suspended in 5 ml PBS solution and vortexed to form a suspension. The parasite suspension was centrifuged at 1700 rpm for 10 min and the supernatant discarded. The pelleted parasites were re-suspended in 1.5 ml of PBS and vortexed thoroughly before adding 3.5 ml absolute EtOH gradually to a final volume of 5 ml 70% EtOH. The parasites were then fixed at −20° C. for 1 h. The cell suspension was then centrifuged at 1700 rpm for 10 min and the supernatant discarded. Pelleted parasites were re-suspended in 200 μl of Guava Cell Cycle reagent, which has Propidium Iodide as its main constituent and incubated at room temperature for 30 min. The solution was transferred to wells of 96-well plate. The well contents were then subjected to FACS analysis using the Millipore guava easyCyte 5HT FACS machine, for the sorting of parasites according to the manufacturer's instructions."}, "Caco2 (colon cancer)": {"system": "Caco2 (colon cancer)", "test": "MTT cytotoxicity assay, Caco2", "assay_type": "cell-based, human", "conditions": "IC50 against Caco2 / IC50 against T. brucei", "procedure": "as §1"}, "[11]": {"test": "MTT cytotoxicity assay, Caco2", "assay_type": "cell-based, human", "conditions": "human, Caco2 colon cancer cells; Caco2 colon cancer, 48 h, MTT", "procedure": "as §1"}, "HL-60 (leukemia)": {"system": "HL-60 (leukemia)", "test": "MTT cytotoxicity assay, HL-60", "assay_type": "cell-based, human", "conditions": "IC50 against HL-60 / IC50 against T. brucei", "procedure": "as §1"}, "[12]": {"test": "MTT cytotoxicity assay, HL-60", "assay_type": "cell-based, human", "conditions": "human, HL-60 leukemia cells; HL-60 leukemia, 48 h, MTT", "procedure": "as §1"}, "[13]": {"system": "GUTat 3.1 strain of the bloodstream forms of T. b. brucei parasites", "test": "Alamar Blue assay (trypanocidal activity)", "assay_type": "cell-based, Trypanosoma brucei brucei", "conditions": "Trypanosoma brucei, 48 h, T. b. brucei, Alamar Blue, 48 h; read-out: IC50 of anti-trypanosomal activity", "procedure": "as §2, §3\nThe Alamar Blue assay was carried out in a 96-well plate. About 1.5×10^4 Parasites were seeded with varied concentrations of the Morinda lucida crude extract, ranging from as low as 0.78 μg/ml to as high as 200 μg/ml, in a ratio of 1:1 in 100 μl volume per well. Berberine, a compound known as anti-trypanocidal agent, was used as a positive control. […] The parasites were incubated with the plant extracts for 24 hours at 37° C. and under 5% CO2. After 24 hours, 10% Alamar Blue dye was added to each well and re-incubated for another 24 hours under the same conditions but in darkness. After a total of 48 hours, the plate was read for absorbance at 540 nm using the TECAN Sunrise Wako Spectrophotometer. An Absorbance-concentration (extract) curve was drawn and the IC50 value of the plant extract was extrapolated. Alamar Blue assay was also performed on the fractions and compounds purified from Morinda Lucida to determine their IC50 values. The IC50 values obtained were compared with that of the positive control and trypanocidal activity determined."}, "LoVo (colon cancer)": {"system": "LoVo (colon cancer)", "test": "MTT cytotoxicity assay, LoVo", "assay_type": "cell-based, human", "conditions": "IC50 against LoVo / IC50 against T. brucei", "procedure": "as §1"}, "[14]": {"test": "MTT cytotoxicity assay, LoVo", "assay_type": "cell-based, human", "conditions": "human, LoVo colon cancer cells; LoVo colon cancer, 48 h, MTT", "procedure": "as §1"}, "Trypanosoma cells [15]": {"system": "Trypanosoma cells", "test": "Nexin apoptosis assay (FACS)", "assay_type": "cell-based, Trypanosoma brucei brucei", "procedure": "as §2, §3\nThis assay was performed to detect both Phosphatidylserine (PS) signal and fracture of nuclear membraneas markers of apoptosis. Seeding and incubation of parasites with plant materials (extracts, fractions and compounds) were done under the same conditions in Alamar Blue assay. […] The contents of the wells were then subjected to FACS analysis using, the Millipore guava easyCyte 5HT FACS machine for the sorting and estimation of apoptotic parasites according to the manufacturer's instructions."}, "Leishmania": {"system": "Leishmania", "conditions": "reported in literature; cited from earlier work"}, "[16]": {"system": "nuclear DNA of Trypanosoma cells", "conditions": "reported in literature; cited from earlier work"}}, "note": "Entries after “also recorded” stand apart in the source; their conditions may differ."}
{"smiles": "COC(=O)C1=CO[C@@H]2O[C@H]3/C(=C\\c4ccc(O)c(OC)c4)C(=O)O[C@]34C=C[C@H]1[C@H]24", "note": "[ML-2-2, (3aS,4aR,4a^1S,7aS,9aS,3E)-methyl 3-(4-hydroxy-3-methoxybenzylidene)-2-oxo-2,3,3a,4a,4a^1,7a-hexahydro-1,4,5-trioxadicyclopenta[a,hi]indene-7-carboxylate]", "values": [{"measurement": "IC50 at 48 h", "setting": "[1]", "result": 4.08, "unit": "µM"}, {"measurement": "SI (selectivity index)", "setting": "U937 (leukemia)", "result": 3.21}, {"measurement": "SI (selectivity index)", "setting": "KATOIII (stomach cancer)", "result": 0.17}, {"measurement": "IC50 at 48 h", "setting": "[2]", "result": 0.21, "unit": "µM"}, {"measurement": "IC50 at 48 h", "setting": "[3]", "result": 2.45, "unit": "µM"}, {"measurement": "SI (selectivity index)", "setting": "Jurkat (leukemia)", "result": 1.93}, {"measurement": "SI (selectivity index)", "setting": "THP-1 (leukemia)", "result": 5.50}, {"measurement": "IC50 at 48 h", "setting": "[4]", "result": 6.98, "unit": "µM"}, {"measurement": "SI (selectivity index)", "setting": "[5]", "result": 4.73}, {"measurement": "IC50 at 48 h", "setting": "[6]", "result": 6.01, "unit": "µM"}, {"measurement": "IC50 at 48 h", "setting": "[7]", "result": 16, "unit": "µM"}, {"measurement": "SI (selectivity index)", "setting": "HCT-15 (colon cancer)", "result": 12.63}, {"measurement": "SI (selectivity index)", "setting": "[8]", "result": 9.54}, {"measurement": "IC50 at 48 h", "setting": "[9]", "result": 12.1, "unit": "µM"}, {"measurement": "numbers of cells in the G2 and M phase of cell cycle", "setting": "Trypanosoma cells [10]", "result": "did not; also recorded: had no effect"}, {"measurement": "SI (selectivity index)", "setting": "Caco2 (colon cancer)", "result": 1.06}, {"measurement": "IC50 at 48 h", "setting": "[11]", "result": 1.35, "unit": "µM"}, {"measurement": "SI (selectivity index)", "setting": "HL-60 (leukemia)", "result": 3.05}, {"measurement": "IC50 at 48 h", "setting": "[12]", "result": 3.87, "unit": "µM"}, {"measurement": "IC50", "setting": "[13]", "result": 1.27, "unit": "µM"}, {"measurement": "SI (selectivity index)", "setting": "LoVo (colon cancer)", "result": 0.09}, {"measurement": "IC50 at 48 h", "setting": "[14]", "result": 0.11, "unit": "µM"}, {"measurement": "induction of apoptosis", "setting": "Trypanosoma cells [15]; 6.25 μM, 24-hour incubation", "result": "no significant induction of apoptosis"}, {"measurement": "induction of apoptosis in Trypanosoma cells", "setting": "Trypanosoma cells [15]; same concentration (6 μM)", "result": "did not"}]}
{"smiles": "COC(=O)C1=CO[C@H]2O[C@@H]3/C(=C\\c4ccc(O)c(OC)c4)C(=O)O[C@@]34C=C[C@@H]1[C@H]24", "note": "[Oruwacin]", "values": [{"measurement": "anti-Leishmania activity", "setting": "Leishmania", "result": "has anti-Leishmania activity"}]}
{"smiles": "N=C(N)c1ccc(OCCCCCOc2ccc(C(=N)N)cc2)cc1", "note": "[Pentamidine]", "values": [{"measurement": "effect on nuclear DNA of Trypanosoma cells", "setting": "[16]", "result": "no effect on nuclear DNA"}]}
